Laboratory results from PubChem BioAssay AID330 (DTP/NCI, 2004).
Several values for one entry are separate records, joined by “and”; a condition that tells them apart may be missing. Identical values can stand only once. Inconclusive results and toxic doses are left out.

Test system: P388 leukemia ip, CD2F1 mice, survival T/C
Experiment: NCI In Vivo Anticancer Drug Screen. Data for tumor model P388 Leukemia (intraperitoneal) in CD2F1 (CDF1) mice
Conditions: endpoint: median survival time, higher = longer survival
In short: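 Mice carrying the transplanted tumor received test compound or vehicle. Survival was recorded in each group, and the value is the treated-group measurement divided by that of the vehicle-treated control group.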

[1] = dose: 50.0 mg/kg/injection, schedule: Q01DX009 (ip), vehicle: saline with Tween-80
[2] = dose: 100.0 mg/kg/injection, schedule: Q01DX009 (ip), vehicle: saline with Tween-80
[3] = dose: 200.0 mg/kg/injection, schedule: Q01DX009 (ip), vehicle: saline with Tween-80
[4] = dose: 50.0 mg/kg/injection, schedule: Q01DX009 (ip), vehicle: Klucel (hydroxypropylcellulose) (HPC)
[5] = dose: 100.0 mg/kg/injection, schedule: Q01DX009 (ip), vehicle: Klucel (hydroxypropylcellulose) (HPC)
[6] = dose: 200.0 mg/kg/injection, schedule: Q01DX009 (ip), vehicle: Klucel (hydroxypropylcellulose) (HPC)

COc1ccc(/C=C(/C#N)c2ccc(Cl)cc2)cc1
T/C (dose: 25.0 mg/kg/injection, schedule: Q01DX009 (ip), vehicle: saline with Tween-80): 92 % of control
T/C [1]: 92 % of control
T/C [2]: 95 % of control
T/C [3]: 93 % of control

CC12OC1C(=O)C1C3C=CC(C3)C1C2=O (configuration not stated)
T/C (dose: 75.0 mg/kg/injection, schedule: Q04DX002 (ip), vehicle: saline with Tween-80): 96 % of control
T/C (dose: 150.0 mg/kg/injection, schedule: Q04DX002 (ip), vehicle: saline with Tween-80): 96 % of control
T/C (dose: 300.0 mg/kg/injection, schedule: Q04DX002 (ip), vehicle: saline with Tween-80): 97 % of control

COC(=O)N1c2ccccc2[C@@H](O)[C@@H]1OC
T/C (dose: 60.0 mg/kg/injection, schedule: Q01DX005 (ip), vehicle: saline with Tween-80): 119 % of control
T/C (dose: 120.0 mg/kg/injection, schedule: Q01DX005 (ip), vehicle: saline with Tween-80): 116 % of control
T/C (dose: 240.0 mg/kg/injection, schedule: Q01DX005 (ip), vehicle: saline with Tween-80): 100 % of control

O=C1NC(=O)N(c2cccc(Cl)c2)C1=O
T/C [4]: 106 % of control
T/C [5]: 109 % of control
T/C [6]: 102 % of control

CCN(Cc1ccc(C(=O)OC)cc1)c1cccc(NC(C)=O)c1
T/C [1]: 98 % of control
T/C [2]: 100 % of control
T/C [3]: 99 % of control

Cc1nnc(NN=O)nc1C
T/C (dose: 3.12 mg/kg/injection, schedule: Q01DX009 (ip), vehicle: water): 96 % of control
T/C (dose: 6.25 mg/kg/injection, schedule: Q01DX009 (ip), vehicle: water): 100 % of control
T/C (dose: 12.5 mg/kg/injection, schedule: Q01DX009 (ip), vehicle: water): 105 % of control and 98 % of control
T/C (dose: 25.0 mg/kg/injection, schedule: Q01DX009 (ip), vehicle: water): 104 % of control and 106 % of control
T/C (dose: 50.0 mg/kg/injection, schedule: Q01DX009 (ip), vehicle: water): 99 % of control and 101 % of control and 105 % of control
T/C (dose: 100.0 mg/kg/injection, schedule: Q01DX009 (ip), vehicle: water): 96 % of control

Cc1ccc2c(c1)sc1nnc(Cl)n12
T/C [4]: 100 % of control
T/C [5]: 94 % of control
T/C [6]: 88 % of control

COc1cc(Cc2nnc(N)nc2N)cc(OC)c1OC
T/C (dose: 100.0 mg/kg/injection, schedule: Q01DX001 (ip), vehicle: Klucel (hydroxypropylcellulose) (HPC)): 100 % of control
T/C (dose: 200.0 mg/kg/injection, schedule: Q01DX001 (ip), vehicle: Klucel (hydroxypropylcellulose) (HPC)): 114 % of control
T/C (dose: 400.0 mg/kg/injection, schedule: Q01DX001 (ip), vehicle: Klucel (hydroxypropylcellulose) (HPC)): 96 % of control

COC(=O)NC1=Nc2ccccc2N(C(=O)Oc2ccccc2)S1
T/C (dose: 50.0 mg/kg/injection, schedule: Q01DX005 (ip), vehicle: acetone): 100 % of control
T/C (dose: 100.0 mg/kg/injection, schedule: Q01DX005 (ip), vehicle: acetone): 100 % of control
T/C (dose: 200.0 mg/kg/injection, schedule: Q01DX005 (ip), vehicle: acetone): 107 % of control

O=C(/C=C\N(c1ccccc1)c1ccccc1)c1ccccc1
T/C [1]: 90 % of control
T/C [2]: 93 % of control
T/C [3]: 94 % of control

COC(=O)C(Cc1ccc(N(CCCl)CCCl)cc1)N=NNc1nc[nH]c1C(N)=O (configuration not stated)
T/C (dose: 12.5 mg/kg/injection, schedule: Q04DX003 (ip), vehicle: saline with Tween-80): 163 % of control
T/C (dose: 25.0 mg/kg/injection, schedule: Q04DX003 (ip), vehicle: saline with Tween-80): 168 % of control
T/C (dose: 33.0 mg/kg/injection, schedule: Q04DX003 (ip), vehicle: saline with Tween-80): 172 % of control
T/C (dose: 50.0 mg/kg/injection, schedule: Q04DX003 (ip), vehicle: saline with Tween-80): 181 % of control and 213 % of control
T/C (dose: 75.0 mg/kg/injection, schedule: Q04DX003 (ip), vehicle: saline with Tween-80): 231 % of control

CCCCCCCCCCCCCCCCOc1ccccc1CNc1cc(C(F)(F)F)ccc1Cl
T/C (dose: 100.0 mg/kg/injection, schedule: Q04DX003 (ip), vehicle: other): 95 % of control
T/C (dose: 200.0 mg/kg/injection, schedule: Q04DX003 (ip), vehicle: other): 100 % of control
T/C (dose: 400.0 mg/kg/injection, schedule: Q04DX003 (ip), vehicle: other): 90 % of control
